Kb data for 37 compounds are collected here from ChEMBL document CHEMBL1806380, “Rigidized 1-aryl sulfonyl tryptamines: synthesis and pharmacological evaluation as 5-HT6 receptor ligands” (Bioorg Med Chem Lett, 2011).

For the experiment, the target named is 5-hydroxytryptamine receptor 6 (Homo sapiens) (UniProt P50406). As to the kind of experiment: Binding affinity to human recombinant 5HT6 receptor expressed in CHO cells co-expressing pCRE-Luc gene assessed as modulation of serotonin-induced intracellular cAMP level after 4 hrs by luciferase based luminescence assay. Format: cell-based. For orientation: Changes in cAMP serve as a functional read-out for many G protein-coupled receptors.
5-hydroxytryptamine receptor 6 (Homo sapiens), sequence (P50406 whole entry): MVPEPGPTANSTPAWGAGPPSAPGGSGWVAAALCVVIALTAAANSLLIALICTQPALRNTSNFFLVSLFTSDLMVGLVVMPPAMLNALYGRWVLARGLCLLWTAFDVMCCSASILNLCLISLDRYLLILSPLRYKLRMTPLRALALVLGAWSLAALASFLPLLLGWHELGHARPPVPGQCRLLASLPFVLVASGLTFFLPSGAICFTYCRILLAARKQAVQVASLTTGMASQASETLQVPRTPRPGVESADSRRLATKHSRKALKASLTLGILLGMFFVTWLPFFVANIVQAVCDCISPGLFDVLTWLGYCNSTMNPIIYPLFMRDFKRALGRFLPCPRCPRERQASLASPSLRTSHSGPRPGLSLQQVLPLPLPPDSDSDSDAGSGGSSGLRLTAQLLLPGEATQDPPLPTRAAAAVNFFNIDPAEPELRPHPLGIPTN

SMILES strings stand for the structures.

Regarding `CN1CCC(c2cn(S(=O)(=O)c3ccccc3Br)c3ccccc23)C1` (racemic), the Kb is 0.13 nM.

As to `CCOc1ccc2c(c1)c(C1=C(Cl)CN(CC)C1)cn2S(=O)(=O)c1ccccc1Br`, the Kb stood at 0.45 nM.

For the compound `COc1ccc2c(c1)c(C1=C(Cl)CN(C)C1)cn2S(=O)(=O)c1ccc(Br)cc1`, the Kb is 1.78 nM.

On to `CC(C)Oc1ccc2c(c1)c(C1=C(Cl)CN(C)C1)cn2S(=O)(=O)c1ccc(F)cc1`, for which the Kb was found to be 7.27 nM.

In the case of `CCN1CC(Cl)=C(c2cn(S(=O)(=O)c3ccccc3Br)c3ccc(OC)cc23)C1`, the Kb was 6.15 nM.

For `CCN1CC(Cl)=C(c2cn(S(=O)(=O)c3ccccc3)c3ccc(OC)cc23)C1`, the Kb turned out to be 0.7 nM.

For the compound `COc1ccc2c(c1)c(C1=C(Cl)CN(C)C1)cn2S(=O)(=O)c1ccc(C(C)C)cc1`, the Kb came out at 0.25 nM.

Turning to `CCOc1ccc2c(c1)c(C1=C(Cl)CN(C)C1)cn2S(=O)(=O)c1ccc(F)cc1`, the Kb turned out to be 6.16 nM.

Turning to `CCOc1ccc2c(c1)c(C1=C(Cl)CN(C)C1)cn2S(=O)(=O)c1ccc(Br)cc1`, the Kb was determined as 4.45 nM.

Consider `COc1ccc2c(c1)c(CCN(C)C)cn2S(=O)(=O)c1ccccc1`, for which the Kb worked out at 5.8 nM.

On to `CCOc1ccc2c(c1)c(C1=C(Cl)CN(C)C1)cn2S(=O)(=O)c1ccccc1Br`, for which the Kb turned out to be 0.4 nM.

Turning to `CCN1CC(Cl)=C(c2cn(S(=O)(=O)c3cccc(Cl)c3)c3ccc(OC)cc23)C1`, the Kb is 2.4 nM.

On to `CN1CCC(c2cn(S(=O)(=O)c3ccc(F)cc3)c3ccccc23)C1` (racemic), for which the Kb came out at 1 nM.

In the case of `CN1CCC(c2cn(S(=O)(=O)c3ccccc3)c3ccccc23)C1` (racemic), the Kb amounted to 1.52 nM.

On to `COc1ccc2c(c1)c(C1CCN(C)C1)cn2S(=O)(=O)c1ccc(C(C)C)cc1` (racemic), for which the Kb is 0.1 nM.

Regarding `CCN1CC(Cl)=C(c2cn(S(=O)(=O)c3cccc(Cl)c3)c3ccccc23)C1`, the Kb came out at 12.5 nM.

As to `CC(C)Oc1ccc2c(c1)c(C1=C(Cl)CN(C)C1)cn2S(=O)(=O)c1ccccc1`, the Kb worked out at 0.7 nM.

With `CCN1CC(Cl)=C(c2cn(S(=O)(=O)c3ccccc3Br)c3ccccc23)C1`, the Kb was 1.1 nM.

For the compound `CCN1CC(Cl)=C(c2cn(S(=O)(=O)c3cccc(Cl)c3)c3ccc(F)cc23)C1`, the Kb turned out to be 6.15 nM.

Consider `CCN1CC(Cl)=C(c2cn(S(=O)(=O)c3ccc(Br)cc3)c3ccccc23)C1`, for which the Kb amounted to 3.9 nM.

Take `CCN1CC(Cl)=C(c2cn(S(=O)(=O)c3ccc(OC)cc3)c3ccc(OC)cc23)C1`: the Kb is 14.5 nM.

Turning to `COc1ccc(S(=O)(=O)n2cc(C3=C(Cl)CN(C)C3)c3ccccc32)cc1`, the Kb worked out at 10 nM.

Consider `CCN1CCC(c2cn(S(=O)(=O)c3ccccc3Br)c3ccc(OC)cc23)C1` (racemic), for which the Kb is 1.3 nM.

Regarding `CCOc1ccc2c(c1)c(C1=C(Cl)CN(C)C1)cn2S(=O)(=O)c1ccccc1`, the Kb was 1 nM.

Turning to `CC(C)Oc1ccc2c(c1)c(C1CCN(C)C1)cn2S(=O)(=O)c1ccccc1Br` (racemic), the Kb was 4.15 nM.

As to `CN1CC(Cl)=C(c2cn(S(=O)(=O)c3ccccc3)c3ccc(F)cc23)C1`, the Kb was 0.1 nM.

Turning to `CN1CC(Cl)=C(c2cn(S(=O)(=O)c3ccccc3Br)c3ccc(F)cc23)C1`, the Kb came to 0.25 nM.

Take `CCN1CCC(c2cn(S(=O)(=O)c3ccccc3Br)c3ccccc23)C1` (racemic): the Kb is 0.1 nM.

As for `COc1ccc2c(c1)c(C1=C(Cl)CN(C)C1)cn2S(=O)(=O)c1cccc(Cl)c1`, the Kb amounted to 0.84 nM.

In the case of `CCN1CC(Cl)=C(c2cn(S(=O)(=O)c3ccc(F)cc3)c3ccc(OC)cc23)C1`, the Kb is 8.7 nM.

`COc1ccc2c(c1)c(C1=C(Cl)CN(C)C1)cn2S(=O)(=O)c1ccc(F)cc1`: the Kb was 0.63 nM.

As to `CCN1CC(Cl)=C(c2cn(S(=O)(=O)c3ccc(Br)cc3)c3ccc(OC)cc23)C1`, the Kb turned out to be 4.75 nM.

On to `COc1ccc2c(c1)c(C1CCN(C)C1)cn2S(=O)(=O)c1ccccc1Br` (racemic), for which the Kb is 0.13 nM.

`CCN1CC(Cl)=C(c2cn(S(=O)(=O)c3ccc(F)cc3)c3ccccc23)C1`: the Kb came to 5.8 nM.

In the case of `COc1ccc2c(c1)c(C1CCN(C)C1)cn2S(=O)(=O)c1ccccc1` (racemic), the Kb turned out to be 0.89 nM.

For `CCOc1ccc2c(c1)c(C1CCN(C)C1)cn2S(=O)(=O)c1ccccc1Br` (racemic), the Kb was determined as 0.1 nM.

As for `COc1ccc2c(c1)c(C1=C(Cl)CN(C)C1)cn2S(=O)(=O)c1cc(Cl)c(Cl)cc1Cl`, the Kb was 18.4 nM.
